Experimental data taken from patent US20240199964A1, “COMPOUNDS FOR MARKING LIQUIDS” (KUANTAG NANOTEKNOLOJILER GELISTIRME VE URETIM A.S., priority 2022, published 2024).

Tests used:
Type in all cases: physicochemical
[1] = fluorescence emission spectroscopy of marker in xylene solution; conditions: for Em. max. (estimated): not experimental, estimated based on the values of formulas (II) and (III); for Em. max.: xylene solution having 0.5 ppm marker material, excitation 543 nm for (II), 551 nm for (III), experimental
Excerpt: (§1) Chemical structures of other examples of anthrapyridone marker compounds derived based on the general formula (I) may be seen below. […] Table 1 identifies side groups of each anthrapyridone compound based on the general formula (I) and their absorption and emission characteristics. In Table 1, only the absorbance maximum and emission maximum values for the anthrapyridone compound markers with formula (II) and formula (III) are experimental. In the spectroscopic measurements, each test sample includes a xylene solution having 0.5 ppm marker material. For emission measurements 543 and 551 nm excitation wavelength are used, respectively. The absorbance maximum and emission maximum values of the formulas (IV)-(X) are not experimental values. These values are estimated values based on the values of the formulas (II) and (III).

[2] = absorbance spectroscopy of marker in xylene solution; conditions: for Ab. max. (estimated): not experimental, estimated based on the values of formulas (II) and (III); for Ab. max.: xylene solution having 0.5 ppm marker material, experimental
Excerpt: as §1

[3] = absorbance spectrum (UV-Vis) of marker in diesel fuel, FIG. 2A; conditions: diesel solution, about 0.5 ppm marker material
Excerpt: FIG. 2A is a graph of an absorbance spectrum 10A of the marker material (the anthrapyridone compound of formula (III)) in diesel fuel. The absorbance spectrum 10A includes two absorbance maximums 11A and 11B at about 520 nm and about 550 nm wavelength values of the visible radiation range, respectively. A diesel solution having about 0.5 ppm marker material concentration may be used as a test sample for this spectral analysis. The absorbance spectroscopy instrument may be any type of absorbance spectroscopy instrument that is able to take absorbance spectrum in visible radiation region, i.e., 400-600 nm.
The absorbance spectrum shown in FIG. 2A is taken by a UV-Vis Spectroscopy instrument from Thermo Scientific Co in a test range of about 400-650 nm. The fluorescence spectrum shown in FIG. 2B is taken by a fluorescence spectroscopy instrument from Edinburgh Co.

Em. max. (estimated) [1]	Ab. max. (estimated) [2]	Em. max. [1]	Ab. max. [2] [nm]	absorbance maximum 11A [3]	absorbance maximum 11B [3]	SMILES
575-600 nm	540-560 nm					CNc1ccc2c3c(cc(=O)n2C)-c2ccccc2C(=O)c13 [formula (V)]
575-600 nm	540-560 nm					O=C1c2ccccc2-c2cc(=O)n(Cc3ccccc3)c3ccc(NCc4ccccc4)c1c23 [formula (X)]
575-600 nm	540-560 nm					Cn1c(=O)cc2c3c(c(NCc4ccccc4)ccc31)C(=O)c1ccccc1-2 [formula (IV), Solvent Red 150]
		no emission	543			Cc1ccc(Nc2ccc3c4c(cc(=O)n3C)-c3ccccc3C(=O)c24)cc1 [formula (II), Solvent Red 52]
575-600 nm	540-560 nm					CCCCC(CC)CNc1ccc2c3c(cc(=O)n2C)-c2ccccc2C(=O)c13 (centres unmarked) [formula (VII)]

Further lines, the molecule ahead of its results:

SMILES	Em. max. (estimated) [1]	Ab. max. (estimated) [2]	Em. max. [1]	Ab. max. [2] [nm]	absorbance maximum 11A [3]	absorbance maximum 11B [3]
O=C1c2ccccc2-c2cc(=O)n(C3CCCCC3)c3ccc(NC4CCCCC4)c1c23 [formula (VIII)]	575-600 nm	540-560 nm				
CCCCC(CC)CNc1ccc2c3c(cc(=O)n2CC(CC)CCCC)-c2ccccc2C(=O)c13 (centres unmarked) [formula (VI)]	575-600 nm	540-560 nm				
CCCCCCCCCCCNc1ccc2c3c(cc(=O)n2C)-c2ccccc2C(=O)c13 [formula (IX)]	575-600 nm	540-560 nm				
Cn1c(=O)cc2c3c(c(NC4CCCCC4)ccc31)C(=O)c1ccccc1-2 [formula (III), Solvent Red 149]			580 nm	551	about 520 nm	about 550 nm
